Test results: patent US9062284B2, “Uses and detection of herbicide resistance genes for resistance to aryloxyalkanoate herbicides” (Dow ArgoSciences LLC, priority 2007, dated 2015)

Key:
[1] = test system: KY160 untransformed tobacco; experiment: Herbicide response of untransformed KY160 tobacco; assay type: in vivo, Nicotiana tabacum; conditions: for % Injury 20-40% (individuals) / % Injury <20% (individuals) / % Injury >40% (individuals) / % Injury Ave: 2 WAT; for plant response to foliar applied auxinic herbicides (injury): 14 days after application
Excerpt: (§1) Surviving T1 plants were then randomly assigned to various rates of 2,4-D. For tobacco, 140 g ae/ha 2,4-D is an effective dose to distinguish sensitive plants from ones with meaningful levels of resistance. Elevated rates were also applied to determine relative levels of resistance (140, 560, or 2240 g ae/ha).
(§2) All auxin herbicide applications were applied by track sprayer in a 187 L/ha spray volume. 2,4-D used was the commercial dimethylamine salt formulation (456 g ae/L, NuFarm, St Joseph, Mo.). Some T1 individuals were subjected to alternative commercial herbicides instead of a phenoxy auxin. One point of interest was determining whether the pyridyloxyacetate auxin herbicides, triclopyr and fluoroxypyr, could be effectively degraded in planta. Herbicides were applied to T1 plants with use of a track sprayer in a 187 L/ha spray volume.
(§3) T1 transformants were first selected from the background of untransformed plants using a 2,4-D selection scheme. Table 15 compares the response of AAD-13 (v1) and control genes to impart 2,4-D resistance to tobacco T1 transformants. Response is presented in terms of % visual injury 2 WAT. […] An arithmetic mean and standard deviation is presented for each treatment. The range in individual response is also indicated in the last column for each rate and transformation. KY160 untransformed tobacco served as an auxin-sensitive control. The AAD-13 (v1) gene imparted herbicide resistance to individual T1 tobacco plants.
(§4) The ability of AAD-13 (v1) to provide resistance to other aryloxyalkanoate auxin herbicides in transgenic tobacco was determined by foliar application of various substrates. Extra T1 generation plants following the T1 progeny testing were sprayed with the use of a track sprayer set at 187 L/ha. The plants were sprayed with a range of pyridyloxyacetate herbicides: 140-1120 g ae/ha triclopyr (Garlon 3A, Dow AgroSciences) and 280-1120 g ae/ha fluoroxypyr (Starane, Dow AgroSciences). All applications were formulated in water. Each treatment was replicated 3 times. Plants were evaluated at 3 and 14 days after treatment.

[2] = test system: AAD-13 (v1) gene T1 tobacco plants; experiment: Herbicide response of AAD-13 (v1) T1 tobacco; assay type: in vivo, Nicotiana tabacum; conditions: for % Injury 20-40% (individuals) / % Injury <20% (individuals) / % Injury >40% (individuals) / % Injury Ave: 2 WAT; for plant response to foliar applied auxinic herbicides (injury): 14 days after application, line pDAB4114[1]003.006
Excerpt: as §1, §2, §3, §4

AAD-13 (v2) = biological target: T1, AAD-13 (v2) (Sphingobium herbicidovorans, UniProt Q700X4); assay type: biochemical; conditions: substrate 1 mM; rate as percentage of 2,4-D rate in same sample set; propionate rates divided by two
T1 construct: His tag (C); made in house; host or cells: E. coli BL-21, pET-26b(+)
Excerpt: In order to test a broad range of substrates, the production of succinate from the breakdown of α-ketoglutarate was detected spectrophotometricly using a protocol based on the method of Luo et. al. (2006) (Anal. Biochem. 353: 69-74). As depicted in FIG. 3, the concomitant breakdown of α-ketoglutarate and the substrate of interest via AAD-13, results in the production of succinate. Succinate is further modified to succinyl-CoA by succinyl-CoA synthetase which consumes ATP and produces ADP. ADP is then consumed by the commonly employed pyruvate kinase/lactate dehydrogenase enzymatic coupling system (Sigma P0294). The resulting conversion of NADH to NAD is monitored spectrophotometrically at 340 nm.
Identification of AAD-13 (v2) substrates in vitro was based on enzymatic activity detected during continuous spectrophotometric monitoring of a 0.2 mL reaction volume in a 96 well microtiter plate. Reaction conditions were as follows: 100 mM MOPS pH 7.0, 0.4 mM NADH, 0.4 mM ATP, 0.4 mM CoA, 1 mM PEP, 10 mM MgCl2, 0.1 mM […] (solubilized in HCl), and 0.1 mM ascorbate, 1 mM α-ketoglutarate and sufficient AAD-13 (v2) to produce an observable rate in the presence of 2,4-D. Coupling enzymes (SCS/PK/LDH) were adjusted by batch to ensure adequate coupling, and potential substrates were generally assayed at 1 mM. Alterations in substrate concentrations were made as needed to adjust for solubility. Reactions were initiated by either the addition of AAD-13 (v2) or potential substrate. The rate of substrate independent conversion of α-ketoglutarate to succinate by AAD was monitored under the above assay conditions and subtracted from the observed reaction rates. […] Additionally, propionate compounds were checked for pyruvate contamination by spectrophotometrically monitoring the consumption of NADH in the presence of compound and PK/LDH.
Reaction rates are reported as a percentage of the 2,4-D reaction rate obtained in the same sample set. […] It should be noted that faster rates can be more difficult to accurately compare depending on the percentage of available substrate consumed. […] As a result, highly efficient substrates will be properly grouped when compared to low efficiency substrates. Within the grouping of highly efficient substrates however, compounds may not be quantitatively separated by a screen using single rates of substrate and AAD.

T1 sequence (Q700X4 other isoform, or with tags, fused parts or gaps): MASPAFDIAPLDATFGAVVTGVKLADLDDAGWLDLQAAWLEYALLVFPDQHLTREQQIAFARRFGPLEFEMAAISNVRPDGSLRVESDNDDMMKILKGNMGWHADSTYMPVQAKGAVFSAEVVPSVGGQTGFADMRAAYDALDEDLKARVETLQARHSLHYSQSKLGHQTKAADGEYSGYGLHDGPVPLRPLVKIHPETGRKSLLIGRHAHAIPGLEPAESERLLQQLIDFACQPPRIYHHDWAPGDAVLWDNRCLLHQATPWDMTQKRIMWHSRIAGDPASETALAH

CNC.O=C(O)COc1ccc(Cl)cc1Cl [2,4-D DMA]
% Injury 20-40% (individuals) ([1]; 140 g ae/ha postemergence): 0
% Injury <20% (individuals) ([1]; 140 g ae/ha postemergence): 0
% Injury >40% (individuals) ([1]; 140 g ae/ha postemergence): 3
% Injury Ave ([1]; 140 g ae/ha postemergence): 80.0%
% Injury 20-40% (individuals) ([1]; 560 g ae/ha postemergence): 0
% Injury <20% (individuals) ([1]; 560 g ae/ha postemergence): 0
% Injury >40% (individuals) ([1]; 560 g ae/ha postemergence): 3
% Injury Ave ([1]; 560 g ae/ha postemergence): 88.0%
% Injury 20-40% (individuals) ([1]; 2240 g ae/ha postemergence): 0
% Injury <20% (individuals) ([1]; 2240 g ae/ha postemergence): 0
% Injury >40% (individuals) ([1]; 2240 g ae/ha postemergence): 3
% Injury Ave ([1]; 2240 g ae/ha postemergence): 92.0%
% Injury 20-40% (individuals) ([2]; 140 g ae/ha postemergence): 0
% Injury <20% (individuals) ([2]; 140 g ae/ha postemergence): 3
% Injury >40% (individuals) ([2]; 140 g ae/ha postemergence): 0
% Injury Ave ([2]; 140 g ae/ha postemergence): 0.0%
% Injury 20-40% (individuals) ([2]; 560 g ae/ha postemergence): 0
% Injury <20% (individuals) ([2]; 560 g ae/ha postemergence): 3
% Injury >40% (individuals) ([2]; 560 g ae/ha postemergence): 0
% Injury Ave ([2]; 560 g ae/ha postemergence): 0.0%
% Injury 20-40% (individuals) ([2]; 2240 g ae/ha postemergence): 0
% Injury <20% (individuals) ([2]; 2240 g ae/ha postemergence): 3
% Injury >40% (individuals) ([2]; 2240 g ae/ha postemergence): 0
% Injury Ave ([2]; 2240 g ae/ha postemergence): 2.0%

C[C@@H](Oc1ccc(Cl)cc1Cl)C(=O)O [R-dichloroprop, R-dichlorprop]
% of 24D activity (AAD-13 (v2)): 19%

Nc1c(Cl)c(F)nc(OCC(=O)O)c1Cl [fluoroxypyr]
plant response to foliar applied auxinic herbicides (injury) ([1]; 280 g ae/ha): 100.0
plant response to foliar applied auxinic herbicides (injury) ([1]; 560 g ae/ha): 100.0
plant response to foliar applied auxinic herbicides (injury) ([1]; 1120 g ae/ha): 100.0
plant response to foliar applied auxinic herbicides (injury) ([2]; 280 g ae/ha): 7.0
plant response to foliar applied auxinic herbicides (injury) ([2]; 560 g ae/ha): 25.0
plant response to foliar applied auxinic herbicides (injury) ([2]; 1120 g ae/ha): 37.0
rate up to which significant tolerance is provided ([2]; foliar application, T1 tobacco): up to 1120 g ae/ha
% of 24D activity (AAD-13 (v2)): 67%

O=C(O)COc1nc(Cl)c(Cl)cc1Cl [triclopyr]
plant response to foliar applied auxinic herbicides (injury) ([1]; 280 g ae/ha): 82.0
plant response to foliar applied auxinic herbicides (injury) ([1]; 560 g ae/ha): 88.0
plant response to foliar applied auxinic herbicides (injury) ([1]; 1120 g ae/ha): 92.0
plant response to foliar applied auxinic herbicides (injury) ([2]; 280 g ae/ha): 53.0
plant response to foliar applied auxinic herbicides (injury) ([2]; 560 g ae/ha): 65.0
plant response to foliar applied auxinic herbicides (injury) ([2]; 1120 g ae/ha): 75.0
% of 24D activity (AAD-13 (v2)): 6%
